Source: ChEMBL document CHEMBL1125473, “A series of potent HIV-1 protease inhibitors containing a hydroxyethyl secondary amine transition state isostere: synthesis, enzyme inhibition, and antiviral activity” (J Med Chem, 1992)
Numbered stars: 1 amine (or outer) side, 2 acyl side, 3 side chain; on linkers, the order of the positions; unused ones are H or OH. Square brackets hold non-standard residues; d marks the D form. Peptide text beside a SMILES is read from it. X1 = O=C([C@H]1CCCN1C[C@@H](O)[C@@H](Cc1ccccc1)N[*:1])[*:2]

Tests used:
[1] = biological target: T1, Human immunodeficiency virus type 1 protease (Human immunodeficiency virus 1, UniProt Q72874); assay: In vitro inhibition of HIV protease, using a peptide hydrolysis assay
[2] = biological target: T1, Human immunodeficiency virus type 1 protease; assay: In vitro inhibition of HIV-Protease, using a peptide hydrolysis assay

Row | SMILES | IC50 [1] | IC50 [2] | further results
1 | CC(C)(C)OC(=O)N[C@@H](Cc1ccccc1)[C@H](O)CN[C@H](Cc1ccccc1)C(=O)N[C@H]1c2ccccc2C[C@H]1O | 7.3 µM | – | –
2 | CC(C)(C)OC(=O)N[C@@H](Cc1ccccc1)[C@@H](O)CN[C@@H](Cc1ccccc1)C(=O)N[C@H]1c2ccccc2C[C@H]1O | 4.7 µM | – | –
3 | CC(C)(C)OC(=O)N[C@@H](Cc1ccccc1)[C@@H](O)CN[C@H](Cc1ccccc1)C(=O)N[C@H]1c2ccccc2C[C@H]1O | 23.4 µM | – | –
4 | NC(=O)CC(N)C(=O)N[C@@H](Cc1ccccc1)[C@H](O)CN[C@@H](Cc1ccccc1)C(=O)NC1c2ccccc2C[C@H]1O (stereo not given in full) | – | 1.1 µM | –
5 | CC(C)(C)OC(=O)NC(CC(N)=O)C(=O)N[C@@H](Cc1ccccc1)C(O)CN[C@@H](Cc1ccccc1)C(=O)NC1c2ccccc2C[C@H]1O (stereo not given in full) | – | 0.295 µM | –
6 | N[C@@H](Cc1ccccc1)C(O)CN[C@@H](Cc1ccccc1)C(=O)NC1c2ccccc2C[C@H]1O (stereo not given in full) | – | 63 µM | –
7 | CC(C)(C)NC(=O)C(Cc1ccccc1)NCC(O)[C@H](Cc1ccccc1)NC(=O)OC(C)(C)C (stereo not given in full) | – | > 100 µM | –
8 | NC(=O)CC(NC(=O)c1ccc2ccccc2n1)C(=O)N[C@@H](Cc1ccccc1)[C@H](O)CN[C@@H](Cc1ccccc1)C(=O)NC1c2ccccc2C[C@H]1O (stereo not given in full) | – | 0.0054 µM | –
9 | CC(C)(C)OC(=O)N[C@@H](Cc1ccccc1)[C@H](O)CN1C[C@H]2CCCC[C@H]2C[C@H]1C(=O)NC1c2ccccc2CC1O (stereo not given in full) | – | > 3 µM | –
10 | CC(C)(C)OC(=O)N[C@@H](Cc1ccccc1)C(O)CNC(Cc1ccccc1)C(=O)NC(CO)c1ccccc1 (stereo not given in full) | 38 µM | – | –
11 | CC(C)(C)OC(=O)N[C@@H](Cc1ccccc1)[C@H](O)CN[C@@H](Cc1ccccc1)C(=O)N[C@H]1c2ccccc2C[C@H]1O | 0.252 µM | – | –
12 | CC(C)(C)NC(=O)[C@@H]1C[C@@H]2CCCC[C@@H]2CN1C[C@@H](O)[C@H](Cc1ccccc1)NC(=O)OC(C)(C)C | – | > 3 µM | –
13 | CC[C@H](C)[C@H](NC(=O)[C@H]1CCCN1C[C@@H](O)[C@@H](Cc1ccccc1)NC(=O)[C@H](CC(N)=O)NC(=O)[C@H](CC(C)C)NC(=O)[C@@H](N)CO)C(=O)N[C@H](C(=O)OC)C(C)C (H-SLN[X1]IV-OMe) | – | – | Ki [2]: 0.00024 µM
14 | CC(C)(C)OC(=O)N[C@@H](Cc1ccccc1)[C@H](O)CNC(C(=O)N[C@H]1c2ccccc2C[C@H]1O)C(O)c1ccccc1 (stereo in doubt; 12) | 8.5 µM | – | –
15 | CC(C)(C)OC(=O)N[C@@H](Cc1ccccc1)[C@H](O)CNC(C(=O)N[C@H]1c2ccccc2C[C@H]1O)C(O)c1ccccc1 (stereo in doubt; 13) | 8.6 µM | – | –
